Reference: patent publication US8546357B2, “Boron-containing small molecules for controlling ectoparasites” (priority 2011, dated 2013)

Legend:
[1] = system: Lone star tick larvae (Amblyomma americanum); experiment: Larval immersion microassay against larval-stage Lone star ticks; conditions: Amblyomma americanum, 24 h, read-out: activity (percent larval mortality)
Method: The larval immersion microassay was conducted as described in detail in White, et al., J. Med. Entomol. 41: 1034-1042 (2004). Compounds of the invention were formulated in dimethylsulfoxide (DMSO) to prepare a stock solution at a concentration of at least 10 mM. Using 96-well microtiter plates, an aliquot of the mM sample was subsequently diluted in a water-based solution containing 1% ethanol and 0.2% Triton X-100, to obtain the desired concentration (typically 0.3 mM or lower) of compound in a volume of 0.1 ml (minimum n=3 replicates per compound or concentration). Approximately 30-50 Lone star tick larvae (Amblyomma americanum) were submerged into each well containing compounds. After a 30 minute immersion period, larvae were removed with a wide-bore pipette tip in 0.05 ml of fluid, dispensed into a commercial paper tissue biopsy bag which was sealed at the top with a plastic dialysis clip, inverted and allowed to air dry for 60 minutes. Bags containing larvae were then incubated at approximately 27 degrees Celsius and >90% relative humidity. After 24 hours, bags were opened, live and dead larvae were counted and percent larval mortality was calculated.
7 and 8 contain one chiral center each, and are racemic mixtures comprised of approximately 50% R- and 50% S-enantiomer. In vitro and surrogate animal (rat) studies were conducted to evaluate the biological activity of the R- and S-enantiomers of 7 and 8. For the in vitro study, larvae of the Lone star tick (Amblyomma americanum) were exposed to 9, 10, 11 and 12 using the larval immersion microassay at a concentration of no greater than 0.3 mM. Following exposure, larvae were removed, transferred to a tissue biopsy bag and incubated at approximately 27 degrees Celsius and >90% relative humidity. After 24 hours, biopsy bags were opened and the numbers of live and dead larvae were determined

[2] = system: adult American dog tick (Dermacentor variabilis); experiment: Therapeutic (knockdown) and residual efficacy against adult American dog tick infestations on dogs, oral; format: in vivo; conditions: for therapeutic efficacy / Residual efficacy: oral gavage 25 mg/kg
Method: (§1) The therapeutic (knockdown) and residual efficacy of 5, administered orally at a point dose of 25 mg/kg bodyweight, was evaluated against adult American dog tick (D. variabilis) infestations on dogs. Six beagle dogs were allocated to one of two treatment groups, an untreated control group (n=4 dogs) or 5 group (n=2 dogs). On Day 0, two dogs were treated with 5 via oral gavage (25 mg/ml 5, dissolved in a solution of 55% polyethylene glycol-300, 35% propylene glycol and 10% water) at a point dose of approximately 25 mg/kg. Twenty-four (24) hours before treatment (Day −1), all dogs were infested with approximately 50 unfed, adult-stage American dog ticks (D. variabilis; approximately 50% male and 50% female). On Day 1, approximately 24 hours after treatment, thumb counts were conducted to determine the number and life-status classification of ticks present on all dogs (normal, moribund or dead; attached or detached). Ticks were not removed during thumb counts. On Day 2, approximately 48 hours after treatment, all ticks were classified and removed from dogs. Dogs were re-infested with approximately 50 unfed, adult D. variabilis ticks on Days 5 and 12, with tick classification, counts and removal on Days 7 and 14 (approximately 48 hours after each infestation).
(§2) The therapeutic (knockdown) and residual efficacy of 7 and 8, each administered orally at a point dose of 25 mg/kg bodyweight, was evaluated against adult tick (Dermacentor variabilis and Rhipicephalus sanguineus) and adult cat flea (Ctenocephalides felis) infestations on dogs. Twelve (12) male and female beagle dogs were randomly allocated to one of three treatment groups, four (4) dogs per group: Untreated control; 7, 25 mg/kg; and 8, 25 mg/kg. On Day −1, all dogs were infested with approximately 50 unfed, adult D. variabilis ticks. On Day 0, dogs were orally administered gelatin capsules containing either 7 or 8 (50% technical active, 47% microcrystalline cellulose and 3% croscarmellose sodium, w/w). Ticks were counted and classified, but not removed, on all dogs on Day 1, approximately 24 hours after treatment. On Day 2, approximately 48 hours after treatment, ticks were counted, classified and removed. Dogs were re-infested with the same number of D. variabilis ticks on Days 5, 12, 19 and 28 and tick counts were conducted on Days 7, 14, 21 and 30.
(§3) The therapeutic (knockdown) and residual efficacy of 7, administered orally at a point dose of 35 mg/kg bodyweight, was evaluated against adult tick (Dermacentor variabilis and Rhipicephalus sanguineus) and adult cat flea (Ctenocephalides felis) infestations on dogs. Twelve (12) male and female beagle dogs were allocated to either an untreated, negative control group or 7 group (n=6 dogs per group). Dogs were infested with approximately 50 unfed, adult D. variabilis ticks on Days −1, 5, 12, 19, 28, 35 and 42. On Day 0, dogs were orally administered gelatin capsules containing Compound 8194 (50% technical active, 47% microcrystalline cellulose and 3% croscarmellose sodium, w/w) at a point dose of 35 mg/kg. D. variabilis tick counts and classification were conducted on Day 1 (thumb count, approximately 24 hours after treatment) and Days 2, 7, 14, 21, 30, 37 and 44 (approximately 48 hours after treatment). Following removal of D. variabilis ticks on Day 30, all dogs were co-infested with approximately 50 unfed, adult brown dog ticks (R. sanguineus) and approximately 100 unfed, adult cat fleas (C. felis). Brown dog tick and cat flea counts were conducted on Day 32 (approximately 48 hours after infestation). GM percent efficacy of treatments against both tick species and fleas was calculated using the following formula: […]
The therapeutic (knockdown) and residual efficacy of S-enantiomer, 9, administered orally at a point dose of 25 mg/kg bodyweight, was evaluated against adult tick (Dermacentor variabilis and Rhipicephalus sanguineus) and adult cat flea (Ctenocephalides felis) infestations on dogs. […]

[3] = Tolerability of oral treatment in dogs; format: in vivo, dog
Method: as §1, §2
The therapeutic (knockdown) and residual efficacy of 7, administered orally at a point dose of 35 mg/kg bodyweight, was evaluated against adult tick (Dermacentor variabilis and Rhipicephalus sanguineus) and adult cat flea (Ctenocephalides felis) infestations on dogs. Twelve (12) male and female beagle dogs were allocated to either an untreated, negative control group or 7 group (n=6 dogs per group). Dogs were infested with approximately 50 unfed, adult D. variabilis ticks on Days −1, 5, 12, 19, 28, 35 and 42. On Day 0, dogs were orally administered gelatin capsules containing Compound 8194 (50% technical active, 47% microcrystalline cellulose and 3% croscarmellose sodium, w/w) at a point dose of 35 mg/kg. […] GM percent efficacy of treatments against both tick species and fleas was calculated using the following formula: […]
The therapeutic efficacy and speed of kill of 7, administered orally at a point dose of 20 mg/kg bodyweight, was evaluated against adult cat flea (Ctenocephalides felis) infestations on dogs. […]

[4] = system: brown dog tick (Rhipicephalus sanguineus); experiment: Residual efficacy against adult brown dog tick infestations on dogs, oral; format: in vivo; conditions: Day 32
Method: (§4) Immediately following removal of D. variabilis ticks on Day 30, dogs were co-infested with approximately 50 adult, unfed brown dog ticks (R. sanguineus, approximately 50% male and 50% female) and approximately 100 adult, unfed cat fleas (C. felis, approximately 50% male and 50% female). Ticks and fleas were counted and removed on Day 32 (approximately 48 hours after infestation). GM percent efficacy of treatments against both tick species and fleas was calculated using the following formula: […]
as §3
(§5) The therapeutic (knockdown) and residual efficacy of S-enantiomer, 9, administered orally at a point dose of 25 mg/kg bodyweight, was evaluated against adult tick (Dermacentor variabilis and Rhipicephalus sanguineus) and adult cat flea (Ctenocephalides felis) infestations on dogs. Twelve (12) male and female beagle dogs were allocated to either an untreated, negative control group or 9 group (n=6 dogs per group). Dogs were infested with approximately 50 unfed, adult D. variabilis ticks on Days −1, 5, 12, 19, and 28. On Day 0, dogs were orally administered gelatin capsules containing 9 (50% technical active, 47% microcrystalline cellulose and 3% croscarmellose sodium, w/w) at a point dose of 25 mg/kg. D. variabilis tick counts and classification were conducted on Day 1 (thumb count, approximately 24 hours after treatment) and Days 2, 7, 14, 21 and 30 (approximately 48 hours after treatment). Following removal of D. variabilis ticks on Day 30, all dogs were co-infested with approximately 50 unfed, adult brown dog ticks (R. sanguineus) and approximately 100 unfed, adult cat fleas (C. felis). Brown dog tick and cat flea counts were conducted on Day 32 (approximately 48 hours after infestation). GM percent efficacy of treatments against both tick species and fleas was calculated using the following formula: […]

[5] = system: cat flea (Ctenocephalides felis); experiment: Residual efficacy against adult cat flea infestations on dogs, oral; format: in vivo; conditions: Day 32
Method: as §4, §3, §5

[6] = Table 7, oral capsule 25 mg/kg, Day 1
[7] = Table 7, oral capsule 25 mg/kg, Day 2
[8] = Table 7, oral capsule 25 mg/kg, Day 7
[9] = Table 7, oral capsule 25 mg/kg, Day 14
[10] = Table 7, oral capsule 25 mg/kg, Day 21
[11] = Table 7, oral capsule 25 mg/kg, Day 30
[12] = Table 6, oral capsule 25 mg/kg, Day 2
[13] = Table 6, oral capsule 25 mg/kg, Day 7
[14] = Table 6, oral capsule 25 mg/kg, Day 14
[15] = Table 6, oral capsule 25 mg/kg, Day 21

SMILES: Cc1cc(C2=NOC(c3cc(Cl)c(F)c(Cl)c3)(C(F)(F)F)C2)ccc1C(=O)NCc1ccc2c(c1)C(C)(C)OB2O (stereo not drawn) [Compound 3, 4-(5-(3,5-Dichloro-4-fluorophenyl)-5-(trifluoromethyl)-4,5-dihydroisoxazol-3-yl)-N-((1-hydroxy-3,3-dimethyl-1,3-dihydrobenzo[c][1,2]oxaborol-5-yl)methyl)-2-methylbenzamide]
- mortality at 300 µM [1]: ≥ 80%
- Geometric mean group live parasite counts [2, 6]: 0.0
- % efficacy [2, 7]: (100) %
- Geometric mean group live parasite counts [2, 7]: 0.0
- Geometric mean group live parasite counts [2, 8]: 1.2
- Geometric mean group live parasite counts [2, 9]: 13.3

SMILES: Cc1cc(C2=NOC(c3cc(Cl)cc(Cl)c3)(C(F)(F)F)C2)ccc1C(=O)NCc1ccc2c(c1)B(O)OC2(C)C (stereo not drawn) [Compound 5, 4-(5-(3,5-Dichlorophenyl)-5-(trifluoromethyl)-4,5-dihydroisoxazol-3-yl)-N-((1-hydroxy-3,3-dimethyl-1,3-dihydrobenzo[c][1,2]oxaborol-6-yl)-methyl)-2-methyl benzamide]
- mortality at 300 µM [1]: ≥ 80%
- therapeutic efficacy ([2]; 24 hour post-treatment): 100%
- therapeutic efficacy ([2]; 48 hour post-treatment): 100%
- Residual efficacy ([2]; Day 7): 82.6%
- Residual efficacy ([2]; Day 14): 82.7%
- tolerability ([3]; oral gavage 25 mg/kg): well tolerated

SMILES: Cc1cc(C2=NO[C@@](c3cc(Cl)c(F)c(Cl)c3)(C(F)(F)F)C2)ccc1C(=O)NCc1ccc2c(c1)B(O)OC2(C)C [Compound 11, (S)-4-(5-(3,5-Dichloro-4-fluorophenyl)-5-(trifluoromethyl)-4,5-dihydroisoxazol-3-yl)-N-((1-hydroxy-3,3-dimethyl-1,3-dihydrobenzo[c][1,2]oxaborol-6-yl)methyl)-2-methylbenzamide]
- mortality at 300 µM [1]: ≥ 80%
- efficacy ([2]; Example 11, oral capsule 25 mg/kg, through Day 21): ≥ 99%
- Geometric mean group live parasite counts [2, 6]: 0.0
- % efficacy [2, 7]: (100) %
- Geometric mean group live parasite counts [2, 7]: 0.0
- % efficacy [2, 8]: (98.8) %
- Geometric mean group live parasite counts [2, 8]: 0.3
- % efficacy [2, 9]: (99.1) %
- Geometric mean group live parasite counts [2, 9]: 0.3
- % efficacy [2, 10]: (99.0) %
- Geometric mean group live parasite counts [2, 10]: 0.2
- % efficacy [2, 11]: (95.6) %
- Geometric mean group live parasite counts [2, 11]: 1.1
- Geometric mean group live parasite counts ([4]; Table 7, oral capsule 25 mg/kg): 2.8
- Geometric mean group live parasite counts ([5]; Table 7, oral capsule 25 mg/kg): 2.5

SMILES: Cc1cc(C2=NO[C@@](c3cc(Cl)c(Cl)c(Cl)c3)(C(F)(F)F)C2)ccc1C(=O)NCc1ccc2c(c1)B(O)OC2(C)C [Compound 9, (S)—N-((1-hydroxy-3,3-dimethyl-1,3-dihydrobenzo[c][1,2]oxaborol-6-yl)methyl)-2-methyl-4-(5-(3,4,5-trichlorophenyl)-5-(trifluoromethyl)-4,5-dihydroisoxazol-3-yl)benzamide]
- mortality at 300 µM [1]: ≥ 80%
- continued residual efficacy ([2]; Example 10, oral capsule 25 mg/kg, through Day 21): 100%
- Geometric mean group live parasite counts ([2]; Table 6, oral capsule 25 mg/kg, Day 1): 0.0
- % efficacy [2, 12]: (100) %
- Geometric mean group live parasite counts [2, 12]: 0.0
- % efficacy [2, 13]: (100) %
- Geometric mean group live parasite counts [2, 13]: 0.0
- % efficacy [2, 14]: (100) %
- Geometric mean group live parasite counts [2, 14]: 0.0
- % efficacy [2, 15]: (100) %
- Geometric mean group live parasite counts [2, 15]: 0.0
- Geometric mean group live parasite counts ([2]; Table 6, oral capsule 25 mg/kg, Day 30): 1.1
- Geometric mean group live parasite counts ([4]; Table 6, oral capsule 25 mg/kg): 0.5
- Geometric mean group live parasite counts ([5]; Table 6, oral capsule 25 mg/kg): 0.9
- tolerability ([3]; Example 10, oral capsule 25 mg/kg): well tolerated
